Data from ChEMBL document CHEMBL5107997, “Discovery and biological evaluation of 1-{2,7-diazaspiro[3.5]nonan-2-yl}prop-2-en-1-one derivatives as covalent inhibitors of KRAS G12C with favorable metabolic stability and anti-tumor activity” (Bioorg Med Chem, 2022).
pIC50: −log10 of the molar value.

Tests used:
GTPase KRas = GTPase KRas (Homo sapiens, UniProt P01116, G12C); assay: Inhibition of biotinylated Avi-tagged GDP-bound KRAS G12C mutant (1 to 185 residues) (unknown origin) assessed as inhibition of KRAS G12C mutant/SOS/GST-tagged c-Raf complex formation incubated for 1 hr and measured by fluorescence based assay
[1] = Downregulation of pERK levels in human NCI-H1373 cells measured after 2 hrs by EISA; assay type: functional, cell-based; details: NCI-H1373, 2 h
NCI-H1373 [2] = assay: Growth inhibition of human NCI-H1373 cells assessed as cell viability after 6 days by CellTiter-Glo assay; assay type: functional, cell-based; details: NCI-H1373, 144 h
A-375 = assay: Growth inhibition of human A-375 cells assessed as cell viability after 6 days by CellTiter-Glo assay; assay type: functional, cell-based; details: A-375, 144 h
[3] = Aqueous solubility of the compound in pH 6.8 JP2 fluid measured after 20 hrs by disintegration test; assay type: physicochemical
[4] = Intrinsic clearance in human liver microsomes at 0.1 to 0.2 umol/L measured after 30 mins in presence of NADPH by LC-MS/MS analysis; assay type: ADME, Microsome; details: dose 0.1-0.2 µmol/L, read-out: CLH
[5] = Intrinsic clearance in mouse liver microsomes at 0.1 to 0.2 umol/L measured after 30 mins in presence of NADPH by LC-MS/MS analysis; assay type: ADME, Microsome; details: dose 0.1-0.2 µmol/L, read-out: CLH
[6] = Downregulation of pERK levels in human A-375 cells measured after 2 hrs by EISA; assay type: functional, cell-based; details: A-375, 2 h
[7] = test system: GTPase KRas (Homo sapiens), P01116 [G12C]; assay: Inhibition of biotinylated Avi-tagged GDP-bound KRAS G12C mutant (1 to 185 residues) (unknown origin) assessed as inhibition of KRAS G12C mutant/SOS/GST-tagged c-Raf complex formation at 3 uM incubated for 1 hr and measured by fluorescence based assay relative to control
[8] = Plasma concentration in nude mouse xenografted with human NCI-H1373 cells at 100 mg/kg, po administered as single dose and measured at 1 hr by LC/MS-MS analysis; assay type: ADME, organism-based
[9] = Plasma concentration in nude mouse xenografted with human NCI-H1373 cells at 100 mg/kg, po administered as single dose and measured at 6 hr by LC/MS-MS analysis; assay type: ADME, organism-based
[10] = Drug uptake in tumor of nude mouse xenografted with human NCI-H1373 cells at 100 mg/kg, po administered as single dose and measured at 6 hr by LC/MS-MS analysis; assay type: ADME, organism-based, Neoplasm; details: read-out: Drug uptake
[11] = Plasma concentration in nude mouse xenografted with human NCI-H1373 cells at 30 mg/kg, sc administered as single dose and measured at 1 hr by LC/MS-MS analysis; assay type: ADME, organism-based
[12] = Plasma concentration in nude mouse xenografted with human NCI-H1373 cells at 30 mg/kg, sc administered as single dose and measured at 6 hr by LC/MS-MS analysis; assay type: ADME, organism-based
[13] = Drug uptake in tumor of nude mouse xenografted with human NCI-H1373 cells at 30 mg/kg, sc administered as single dose and measured at 6 hr by LC/MS-MS analysis; assay type: ADME, organism-based, Neoplasm; details: read-out: Drug uptake
NCI-H1373 [14] = assay: Antitumor activity against human NCI-H1373 cells xenografted in nude mouse assessed as inhibition of p-ERK levels at 33 mg/kg, sc administered as single dose and measured after 6 hrs; assay type: functional
NCI-H1373 [15] = assay: Antitumor activity against human NCI-H1373 cells xenografted in nude mouse assessed as tumor growth inhibition at 3 mg/kg, sc administered as single dose; assay type: functional; details: read-out: TGI
NCI-H1373 [16] = assay: Antitumor activity against human NCI-H1373 cells xenografted in nude mouse assessed as tumor growth inhibition at 10 mg/kg, sc administered as single dose; assay type: functional; details: read-out: TGI
NCI-H1373 [17] = assay: Antitumor activity against human NCI-H1373 cells xenografted in nude mouse assessed as tumor growth inhibition at 30 mg/kg, sc administered as single dose; assay type: functional; details: read-out: TGI
[18] = Toxicity in nude mouse xenografted with human NCI-H1373 cells assessed as effect on body weight at 3 to 30 mg/kg, sc; assay type: organism-based; details: in vivo, dose 3-30 mg/kg

SMILES: C=CC(=O)N1CC2(CCN(c3nc(OC4CCN(C)CC4)nc4c(F)c(-c5c(C)ccc6[nH]ncc56)c(Cl)cc34)CC2)C1
- pIC50 (GTPase KRas): 7.15
- pIC50 [1]: 7.02
- pIC50 (NCI-H1373 [2]): 7.00
- pIC50 (A-375): 5.54
- solubility at 20 h [3]: > 100 µM
- CLint scaled [4]: 35 mL/min/kg
- CLint scaled [5]: 115 mL/min/kg

SMILES: C=CC(=O)N1CC2(CCN(c3nc(NC4CCN(C)CC4)nc4c(F)c(-c5c(C)ccc6[nH]ncc56)c(Cl)cc34)C2)C1
- pIC50 (GTPase KRas): 6.80
- pIC50 [1]: 6.26
- pIC50 [6]: < 5.00
- pIC50 (NCI-H1373 [2]): 6.02
- pIC50 (A-375): 5.40

SMILES: C=CC(=O)N1CC2(C1)CN(c1nc(NC3CCN(C)CC3)nc3c(F)c(-c4c(C)ccc5[nH]ncc45)c(Cl)cc13)C2
- pIC50 (GTPase KRas): 5.52
- inhibition [7]: 60%

SMILES: C=CC(=O)N1CCC2(C1)CN(c1nc(NC3CCN(C)CC3)nc3c(F)c(-c4c(C)ccc5[nH]ncc45)c(Cl)cc13)C2
- pIC50 (GTPase KRas): 4.74

SMILES: CCN1CCC(Oc2nc(N3CCC4(CC3)CN(C(=O)/C=C/CN3CCOCC3)C4)c3cc(Cl)c(-c4c(C)ccc5[nH]ncc45)c(F)c3n2)CC1
- pIC50 (GTPase KRas): < 5.00

SMILES: C=CC(=O)N1CC2(CCN(c3nc(OCCCN(C)C)nc4c(F)c(-c5c(C)ccc6[nH]ncc56)c(Cl)cc34)CC2)C1
- pIC50 (GTPase KRas): 6.59

SMILES: C=CC(=O)N1CC2(CCN(c3nc(OCCCN4CCCCC4)nc4c(F)c(-c5c(C)ccc6[nH]ncc56)c(Cl)cc34)CC2)C1
- pIC50 (GTPase KRas): 6.43

SMILES: C=CC(=O)N1CC2(CCN(c3nc(OCC4CCN(C)CC4)nc4c(F)c(-c5c(C)ccc6[nH]ncc56)c(Cl)cc34)CC2)C1
- pIC50 (GTPase KRas): 6.89

SMILES: C=CC(=O)N1CC2(CCN(c3nc(N(C)C4CCN(CC)CC4)nc4c(F)c(-c5c(C)ccc6[nH]ncc56)c(Cl)cc34)CC2)C1
- pIC50 (GTPase KRas): 5.49

SMILES: C=CC(=O)N1CC2(CCN(c3nc(OC4CCOCC4)nc4c(F)c(-c5c(C)ccc6[nH]ncc56)c(Cl)cc34)CC2)C1
- pIC50 (GTPase KRas): 5.68

SMILES: C=CC(=O)N1CCC2(CC1)CN(c1nc(NC3CCN(C)CC3)nc3c(F)c(-c4c(C)ccc5[nH]ncc45)c(Cl)cc13)C2
- pIC50 (GTPase KRas): < 4.52

SMILES: C=CC(=O)N1CC2(CCN(c3nc(OC4(CN(C)C)CCC4)nc4c(F)c(-c5c(C)ccc6[nH]ncc56)c(Cl)cc34)CC2)C1
- pIC50 (GTPase KRas): 6.11

SMILES: C=CC(=O)N1CC2(CCN(c3nc(NC4CCN(C)CC4)nc4c(F)c(-c5c(C)ccc6[nH]ncc56)c(Cl)cc34)CC2)C1
- pIC50 (GTPase KRas): 6.46
- pIC50 [1]: 6.42
- pIC50 [6]: < 5.00
- pIC50 (NCI-H1373 [2]): 6.41
- pIC50 (A-375): 5.55

SMILES: C=CC(=O)N1CC2(CCN(c3nc(OCCN(C)C)nc4c(F)c(-c5c(C)ccc6[nH]ncc56)c(Cl)cc34)CC2)C1
- pIC50 (GTPase KRas): 6.47

SMILES: C=CC(=O)N1CCN(c2nc(NC3CCN(C)CC3)nc3c(F)c(-c4c(C)ccc5[nH]ncc45)c(Cl)cc23)CC1
- pIC50 (GTPase KRas): 6.33
- pIC50 [1]: 6.37
- pIC50 [6]: < 5.00
- pIC50 (NCI-H1373 [2]): 6.19
- pIC50 (A-375): 5.96

SMILES: C=CC(=O)N1CC2(CCN(c3nc(OCCCN4CCOCC4)nc4c(F)c(-c5c(C)ccc6[nH]ncc56)c(Cl)cc34)CC2)C1
- pIC50 (GTPase KRas): 6.19

SMILES: C=CC(=O)N1CC2(CCN(c3nc(OC4CCN(CC)CC4)nc4c(F)c(-c5c(C)ccc6[nH]ncc56)c(Cl)cc34)CC2)C1
- pIC50 (GTPase KRas): 7.11
- pIC50 [1]: 6.85
- pIC50 (NCI-H1373 [2]): 6.92
- pIC50 (A-375): 5.46
- solubility at 20 h [3]: > 100 µM
- CLint scaled [4]: 37 mL/min/kg
- CLint scaled [5]: 115 mL/min/kg
- concentration at 1 h [8]: 670 nM
- concentration at 6 h [9]: 130 nM
- concentration at 6 h [10]: 70 nM
- concentration at 1 h [11]: 3800 nM
- concentration at 6 h [12]: 720 nM
- concentration at 6 h [13]: 740 nM
- inhibition in vivo at 33 mg/kg (NCI-H1373 [14]): 63%
- inhibition in vivo at 3 mg/kg (NCI-H1373 [15]): 33%
- inhibition in vivo at 10 mg/kg (NCI-H1373 [16]): 50%
- inhibition in vivo at 30 mg/kg (NCI-H1373 [17]): 92%
- Activity [18]: Non-Toxic

SMILES: C=CC(=O)N1CC2(CCN(c3nc(SC4CCN(CC)CC4)nc4c(F)c(-c5c(C)ccc6[nH]ncc56)c(Cl)cc34)CC2)C1
- pIC50 (GTPase KRas): 6.03
